Common to all, as to assay: inhibition of tumour cell growth, NCI panel, 48 h
The test system of test [1] is 786-0.
In test [2] the test system is DMS-114.
Test [3] deals with SNB-78.
Test [4] concerns KM-20L2.
The subject of test [5] is LXFL 529.
Test [6] deals with RXF 631.
The subject of test [7] is MDA-MB-231.
The subject of test [8] is MDA-MB-435.
Test [9] relates to XF498.

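Compound exposure: 48 hours, 5 concentrations, 96-well plates. GI50 is the concentration that inhibits growth by half.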 Activity calls are given as the source filed them. Rule as the data show it: active = GI50 up to about 1.1 µM and inactive = higher.

The record followed here is ChEMBL document CHEMBL1201862, “PubChem BioAssay data set” (2004).

Consider `Cc1cccc2nc3cccc(C(=O)NCCN(C)C)c3nc12`, for which the GI50 was 0.647 µM (active) in [1], 1.06 µM (active) in [2] and 0.802 µM (active) in test [3].
For the compound `O=C(c1ccccc1)c1ccc2n[se]nc2c1`, the GI50 in test [2] was 12.4 µM (inactive); in test [4], 31.4 µM (inactive); in test [5] it was 69.8 µM (inactive); in test [6] it was 18.8 µM (inactive); in test [3] it was > 100 µM (inactive).
On to `COc1cc(-c2cc(=O)c3c(O)c(CC=C(C)C)c(O)cc3o2)ccc1O`, for which the GI50 is 43.5 µM (inactive) in test [7] and 9.1 µM (inactive) in [8].
For `O=C(Nc1ccccc1F)c1c(O)nc2sccn2c1=O` the same measures were > 10 µM (inactive) and > 10 µM (inactive).
`COc1cccc(-c2nnc3c(-c4ccccc4)nc4ccccc4n23)c1`: the figures for the GI50 in test [1], in [7] and in test [8] were 49.1 µM (inactive), 24.5 µM (inactive) and 2.91 µM (inactive), respectively.
As for `Nc1cccc2c1C1=NNC(=O)CC1C2` (stereo unspecified), the GI50 in test [2], in [4], in test [3] and in test [9] was > 100 µM (inactive) each time.
In the case of `N=C(CSS(=O)(=O)O)NC1CC2CCC1C2` (stereo unspecified), the GI50 is > 100 µM (inactive) in test [1], > 100 µM (inactive) in [7] and 95.5 µM (inactive) in test [8].
Regarding `C[N+](C)(C)CC1CCCC(C[N+](C)(C)C)C1=O` (stereo unspecified), the GI50 in [1] was 0.661 µM (active); in test [2], 1.77 µM (inactive); in test [4], 0.855 µM (active); in test [5] it was 0.177 µM (active); in [7], 2.01 µM (inactive); in test [8], 1.8 µM (inactive). In addition, the results for the GI50 in test [6], in test [3] and in test [9] were 1.96 µM (inactive), 2.39 µM (inactive) and 0.411 µM (active), respectively.
On to `CCOC(=O)CCC(NC(=O)OCc1ccccc1)C(=O)NC(CCC(=O)OCC)C(=O)NNC(=O)OC(C)(C)C` (stereo unspecified), for which, in test [8], the GI50 is > 100 µM (inactive).
Consider `CC1(C)OP(=O)(c2ccccc2)C=C1Sc1ccc([N+](=O)[O-])cc1[N+](=O)[O-]` (stereo unspecified), for which the GI50 is 38.6 µM (inactive) in test [1] and 70 µM (inactive) in [8].
Consider `CC(=O)Oc1cc2c(cc1OC(C)=O)OCC(c1ccccc1)C2` (stereo unspecified), for which the GI50 in test [2] is 6.81 µM (inactive); in test [4] it was 34.7 µM (inactive); in [3], 39.2 µM (inactive); in test [9] it was 12.4 µM (inactive).
For the compound `N/N=C1\C(OC(=O)Nc2cccc(Cl)c2)=Nc2ccccc21`, the GI50 in [1] is 6.64 µM (inactive); in test [7] it was 12.1 µM (inactive); in [8], 8.57 µM (inactive).
As to `CC(=O)c1c(P(=O)(OC(C)C)OC(C)C)nn(-c2ccc([N+](=O)[O-])cc2)c1C`, the GI50 in [2], in test [4], in [5], in test [3] and in test [9] was > 100 µM (inactive) in each case.
As to `CCOC(=O)CSc1nc(N)c2c(-c3ccc(OC)c(OC)c3)c3c(nc2n1)CCCC3`, the GI50 in test [7] is 43 µM (inactive); in test [8], > 100 µM (inactive).
Consider `Cn1c(=O)[nH]c2nncnc2c1=O`, for which the GI50 in test [2] is 126 µM (inactive); in test [4], 55.2 µM (inactive); in test [3], 151 µM (inactive); in [9], 54.2 µM (inactive).
With `CSc1nc(NC2OC(CO)C(O)C(O)C2O)c(N)c(=O)[nH]1` (stereo unspecified), the GI50 in test [2], in [4], in test [3] and in [9] was > 100 µM (inactive) each time.
Take `O=C1c2cccc3cc4ccccc4c(c23)C(=O)N1CCNCCNCCNCCN1C(=O)c2cccc3cc4ccccc4c(c23)C1=O`: the GI50 in [2] was 0.0114 µM (active); in [4], < 0.0139 µM (active); in test [3], < 0.01 µM (active); in test [9], 0.0131 µM (active).
As to `CSc1nc(CO)c(CO)n1C`, the GI50 in test [2], in test [4], in test [3] and in test [9] was > 100 µM (inactive) each time.
Take `COc1ccc2c(c1O)-c1cc(O)cc3c1[C@@H](C2)N(C)CC3`: the GI50 in [4] is 2.84 µM (inactive); in test [3] it was 83 µM (inactive); in test [9], 93.8 µM (inactive).
Regarding `C[C@]12CC[C@@H]3c4ccc(OCCN5CCCC5)cc4CC[C@H]3[C@@H]1CCC2=O`, the GI50 was 24.5 µM (inactive) in test [7] and 42.7 µM (inactive) in [8].
For `NC(CCP(=O)(O)CCC1C=CC=CC1)C(=O)O` (stereo unspecified) the same measures were > 100 µM (inactive) and > 100 µM (inactive).
